According to EP2406206B1, “TETRAHYDRONAPHTHALEN-2-OL DERIVATIVES” (MSD Oss B.V., priority 2009, dated 2010):

How the values were obtained:
[1] = tested on: acinar epithelium of the ventral prostate; assay: short-term prostate apoptosis and proliferation model in castrated rats; assay type: in vivo, Wistar rats
Method: Selected compounds were tested in a short-term prostate apoptosis and proliferation model in castrated rats.
Intact mature male Wistar rats (350-400 g) were castrated and left to recover for 1 week. 7 days after the castration rats received a single subcutaneous injection of testosterone buciclate (TB), a long-acting testosterone ester, in arachis oil (20 mg/kg) with a volume of 1 ml/kg and were subsequently treated once daily orally for 3 days with the test substance at doses between 0 and 1000 µg/kg, dissolved in gelatin/mannitol and dosed with a volume of 1 ml/kg.
At the end of the experiment rats were euthanized, the prostates were removed, weighed and processed for histology.
Apoptosis of the acinar epithelium of the ventral prostate was determined with TUNEL ([…]) staining. Apoptotic cells show nuclear DNA fragmentation and the TUNEL assay end-labels the fragmented DNA by incorporating biotinylated dUTP at the 3'-OH DNA ends using the enzyme Terminal deoxynucleotidyl Transferase (TdT). Positively stained cells are counted per acinus (glandular unit) in the ventral prostate. Proliferation of the acinar epithelium of the ventral prostate was determined by immunohistochemical staining with an antibody directed against Ki67 (clone Mib5). Positively stained cells are counted per acinus (glandular unit) in the ventral prostate. Statistical significance is determined as compared to TB alone by one-way ANOVA.

[2] = target: human estrogen receptor β receptor (hERβ) (Homo sapiens, UniProt Q92731); assay: ERβ transactivation bioassay in recombinant CHO cells (rat oxytocin promoter, luciferase reporter); assay type: cell-based; settings: for ERβ/ERα ratio: ERβ agonistic selectivity over ERα, transactivation data; for ERβ eudismic ratio: ratio of the activities of the eutomer and the distomer on ERβ; for EC50: transactivation of luciferase via hERβ in CHO cells, read-out: ERβ agonistic EC50
Chain of human estrogen receptor β receptor (hERβ) (Q92731 whole entry): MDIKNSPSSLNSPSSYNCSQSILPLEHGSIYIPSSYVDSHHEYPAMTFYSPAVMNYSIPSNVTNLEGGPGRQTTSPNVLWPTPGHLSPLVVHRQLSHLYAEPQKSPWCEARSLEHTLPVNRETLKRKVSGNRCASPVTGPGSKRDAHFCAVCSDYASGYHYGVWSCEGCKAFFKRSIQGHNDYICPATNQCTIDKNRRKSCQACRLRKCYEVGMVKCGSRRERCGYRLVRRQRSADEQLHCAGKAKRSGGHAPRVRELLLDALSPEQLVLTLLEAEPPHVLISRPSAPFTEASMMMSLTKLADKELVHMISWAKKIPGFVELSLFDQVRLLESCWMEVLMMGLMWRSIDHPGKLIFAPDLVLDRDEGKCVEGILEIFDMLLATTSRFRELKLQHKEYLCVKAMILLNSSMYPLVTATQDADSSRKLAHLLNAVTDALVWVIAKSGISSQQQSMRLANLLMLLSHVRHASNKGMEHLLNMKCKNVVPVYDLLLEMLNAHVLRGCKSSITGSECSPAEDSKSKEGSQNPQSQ
Method: (§1) The estrogenic and antiestrogenic activity of compounds was determined in an in vitro bioassay with recombinant Chinese hamster ovary (CHO) cells stably co-transfected with the human estrogen receptor α (hERα) or β receptor (hERβ), the rat oxytocin promoter (RO) and the luciferase reporter gene (LUC). The estrogenic activity of a test compound to stimulate the transactivation of the enzyme luciferase mediated via the estrogen receptors hERα or hERβ is expressed in nM. The assay was performed as described by De Gooyer et al., Steroids 68 (2003), 21-30. Table 7. ERβ and ERα transactivation data

[3] = target: T1, human estrogen receptor α (hERα) (Homo sapiens, UniProt P03372); assay: ERα transactivation bioassay in recombinant CHO cells (rat oxytocin promoter, luciferase reporter); assay type: cell-based; settings: ratio of the activities of the eutomer and the distomer on ERα
T1 sequence (P03372 1-595): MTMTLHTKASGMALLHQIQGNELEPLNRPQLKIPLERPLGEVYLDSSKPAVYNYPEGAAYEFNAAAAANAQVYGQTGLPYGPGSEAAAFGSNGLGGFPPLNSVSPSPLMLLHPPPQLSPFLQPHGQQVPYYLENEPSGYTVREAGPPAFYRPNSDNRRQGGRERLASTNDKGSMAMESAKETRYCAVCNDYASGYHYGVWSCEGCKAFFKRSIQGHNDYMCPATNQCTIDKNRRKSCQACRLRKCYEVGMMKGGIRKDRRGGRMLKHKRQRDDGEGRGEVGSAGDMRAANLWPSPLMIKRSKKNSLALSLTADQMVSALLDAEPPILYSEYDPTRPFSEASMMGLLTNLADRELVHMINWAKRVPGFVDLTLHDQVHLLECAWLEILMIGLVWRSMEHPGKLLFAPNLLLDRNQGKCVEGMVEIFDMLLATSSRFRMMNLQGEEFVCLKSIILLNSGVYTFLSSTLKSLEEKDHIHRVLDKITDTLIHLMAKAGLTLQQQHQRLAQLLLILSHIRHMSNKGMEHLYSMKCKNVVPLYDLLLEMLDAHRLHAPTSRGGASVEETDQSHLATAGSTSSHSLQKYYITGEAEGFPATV
Method: as §1

[4] = metabolic stability in human hepatocytes; assay type: in vitro ADME; settings: cryopreserved human hepatocytes in suspension, tetrahydronaphthalen-2-ol, 37°C, sampled 0-120 min, LC-MS/MS, read-out: Human hepatocyte T1/2
Method: A number of compounds 9, 11 and 12 were tested on metabolic stability in human hepatocytes. The hepatic stability was compared to corresponding chroman compounds 25, 26 or 27 (see structures below).
Test compounds were diluted to 3 µM in incubation medium. Then 40 µl of the 3 µM test compounds was pipetted into a 96 well microtiter plate (flat bottom). Hepatocytes (stored at -140 °C) were thawed in a 37°C water bath. The cells were resuspended into pre-warmed thawing medium and were centrifuged for 5 minutes at 50g at room temperature. The supernatant was discarded and the remaining cell pellet was resuspended in warm incubation medium and diluted to 7.5 E5 cells/ml. Then 80 µl of the cell suspension was added to each well of the 96 well microtiter plate containing the test compounds. The resulting mixture was incubated at 37°C and was sampled at t=0, 5, 30, 60, and 120 min. The samples were analyzed by LC-MS/MS to determine the content of unchanged test compound. Based on the rate of reduction of the content of test compound over time, the half-live (T1/2) was calculated. Metabolic stability in human hepatocytes

| Structure (SMILES) | epithelial cell proliferation ([1]; Ki67 staining, ventral prostate, at 3 µg/kg orally, compared to TB-alone treated rats) | epithelial cell apoptosis ([1]; TUNEL staining, ventral prostate, castrated rats given TB, treated once daily orally for 3 days, compared to TB alone) | minimal active dose (MAD) ([1]; increase in epithelial cell apoptosis, once daily orally for 3 days) | ERβ/ERα ratio [2] | ERβ eudismic ratio [2] | EC50 [2] | ERα eudismic ratio [3] | half-life at 1 µM [4] |
| --- | --- | --- | --- | --- | --- | --- | --- | --- |
| C[C@H]1[C@@H](c2ccc(O)cc2)Cc2ccc(O)cc2[C@H]1Cc1ccccc1F (single isomer, unassigned) [Compound 11a] | decrease | statistically significant (p<0.01) increase | 3 µg/kg | 189 | >263 | 0.38 nM | >1.4 | 40.5 min |
| CC[C@H]1[C@@H](c2ccc(O)cc2)Cc2ccc(O)cc2[C@H]1Cc1ccccc1F (single isomer, unassigned) [Compound 11b] | – | – | – | 167 | 93 | 0.15 nM | 0.9 | 40.7 min |
| CC[C@H]1[C@@H](c2ccc(O)c(F)c2)Cc2ccc(O)cc2[C@H]1Cc1ccccc1F (single isomer, unassigned) [Compound 11q] | – | – | – | >169 | 7 | 0.59 nM | <0.3 | 82.2 min |
